Patent US6869973B2, “Nitrosated and nitrosylated taxanes, compositions and methods of use” (NitroMed, Inc., priority 2000, dated 2005)
Where two headings read alike, the source gives them in different places.

What was measured:
[1] = tested on: human coronary artery smooth muscle cells (CASMC); test: Vascular smooth muscle cell (SMC) antiproliferation assay; assay type: cell-based
Experimental: The cells used in this assay were human coronary artery smooth muscle cells (CASMC) supplied by Clonetics Corp. (San Diego, Calif.). They were maintained in SmGM-2 growth medium (Clonetics Corp.), which consisted of modified MCDB 131 medium supplemented with 5% (v/v) fetal bovine serum (FBS), 0.5 ng/mL human recombinant epidermal growth factor (EGF), 2 ng/mL human recombinant fibroblast growth factor (FGF), 5 μg/mL bovine insulin, 50 μg/mL gentamicin sulfate, and 50 ng/mL amphotericin B under humidified 95% air-5% CO2 at 37° C.
For the SMC antiproliferation assay, the cells were seeded at 3×10^4 viable cells in 2 mL of SmGM-2 medium per well of a Corning 24 well plate (Corning, N.Y.). Stock solutions of the test compounds were prepared just prior to addition to the cells by dissolving in ethanol at a concentration of 40 mM. This stock solution was diluted, as required, with ethanol to lower concentrations. […] Control cultures received 2 μL of ethanol per well (n=4). On the following morning, the cultures were examined microscopically and their condition recorded. On the third day after test compound addition (˜68 hr), the cultures were examined microscopically again and the viable cells counted with an hemacytometer following trypsinization with 0.25% trypsin-1 mM EDTA. Trypan Blue dye exclusion was used to discriminate between viable and dead cells.
(§1) The SMC antiproliferation assay was performed as described in Example 5.
as §1

rabbit platelets = test: Rabbit platelet aggregation assay (ADP-induced, platelet-rich plasma); assay type: cell-based, New Zealand White rabbits; conditions: rabbit PRP, 2 min pre-incubation, FIG. 2; for effect on platelet aggregation (qualitative): concentrations higher than 1 μM
Experimental: Blood was collected from New Zealand White rabbits into a sodium citrate solution. Platelet-rich plasma (PRP) and platelet-poor plasma (PPP) were obtained by centrifugation of the citrated blood. Aggregation of the platelets, which was induced by addition of adenosine diphosphate (ADP), was measured in a Chrono-Log Aggregometer (Havertown, Pa.). Stock solutions of the test compounds were prepared in ethanol at concentrations 1000-fold higher than the final concentrations. The test compounds at these different concentrations were pre-incubated with the PRP for 2 min with stirring prior to the addition of ADP. Inhibition of aggregation was quantified as follows: % Inhibition=100% (1−(Max. Ampl. Agg. in Test Compound/Max. Ampl. Agg. Control)) • “Max. Ampl. Agg. In Test Compound” was the measured maximum amplitude of the platelets in the PRP in the presence of and after pre-incubation with the test compound. • “Max. Ampl. Agg. Control” was the measured maximum amplitude of the platelets in the PRP without test compound addition.
Nitric oxide inhibits the aggregation of platelets whether added as the gas or in the form of a NO donor.

[2] = CASMC, viable cell count ~68 hr after compound addition, FIG. 1 / FIG. 3
[3] = CASMC, qualitative ranking against comparator named in the sentence

Molecule	effect on platelet aggregation (qualitative) (rabbit platelets)	concentration that totally suppressed cell proliferation of the seeded cells [1, 2] [µM]	comparison of inhibition of proliferation of vascular smooth muscle cells [1, 3]	further results
9-(2-({((2R)-2,3-bis(nitrooxy)propyl)oxycarbonyl}methoxy)acetyloxy)(1S,2S,4S,9S,10S,15S,7R,12R)-4,12-diacetyloxy-1-hydroxy-10,14,17,17-tetramethyl-6-oxa-11-oxo-2 phenylcarbonyloxytetracyclo (11.3.1.0<3,10>0.0<4,7>)heptadec-13-en-15-yl 2-(2-({((2R)-2,3-bis(nitrooxy)propyl)oxycarbonyl}methoxy)acetyloxy)(3S,2R)-3-phenyl-3-(phenylcarbonylamino)propanoate [Example 3]				comparison of inhibition of proliferation of vascular smooth muscle cells [1]: superior to paclitaxel; concentration that totally suppressed cell proliferation of the seeded cells [1]: 1 µM
CC(=O)O[C@H]1C(=O)[C@@]2(C)C([C@H](OC(=O)c3ccccc3)C3(O)C[C@H](OC(=O)[C@H](O)[C@@H](NC(=O)c4ccccc4)c4ccccc4)C(C)=C1C3(C)C)[C@]1(OC(C)=O)CO[C@@H]1C[C@@H]2OC(=O)CC(C)(C)SN=O (stereo partly drawn) [Example 1, 15-((3S,2R)-2-hydroxy-3-phenyl-3-(phenylcarbonylamino)propanoyloxy) (2S,4S,9S,10S,15S,7R,12R)-4,12-diacetyloxy-1-hydroxy-10,14,17,17-tetramethyl-6-oxa-11-oxo-2-phenylcarbonyloxytetracyclo (11.3.1.0<3,10>0.0<4,7>)heptadec-13-en-9-yl 3-methyl-3-(nitrosothio) butanoate]	inhibited platelet aggregation, but required higher concentrations than SNO-Glu	0.1	superior to its non-nitrosylated derivative (Example 1d)	
CC(=O)O[C@H]1C(=O)[C@@]2(C)C([C@H](OC(=O)c3ccccc3)[C@]3(O)C[C@H](OC(=O)[C@H](O)[C@@H](NC(=O)c4ccccc4)c4ccccc4)C(C)=C1C3(C)C)[C@]1(OC(C)=O)CO[C@@H]1C[C@@H]2OC(=O)CC(C)(C)S (stereo partly drawn) [Example 1d, 15-((3S,2R)-2-hydroxy-3-phenyl-3-(phenylcarbonylamino)propanoyloxy) (2S,4S,9S,10S,15S,7R,12R)-4,12-diacetyloxy-1-hydroxy-10,14,17,17-tetramethyl-6-oxa-11-oxo-2-phenylcarbonyloxytetracyclo(11.3.1.0<3,10>0.0<4,7>)heptadec-13-en-9-yl 3-methyl-3-sulfanylbutanoate]	did not prevent platelet aggregation	0.1		
CC(=O)OC1C(=O)C2(C)C(OC(=O)COCC(=O)OCC(CO[N+](=O)[O-])(CO[N+](=O)[O-])CO[N+](=O)[O-])CC3OCC3(OC(C)=O)C2C(OC(=O)c2ccccc2)C2(O)CC(OC(=O)C(OC(=O)COCC(=O)OCC(CO[N+](=O)[O-])(CO[N+](=O)[O-])CO[N+](=O)[O-])C(NC(=O)c3ccccc3)c3ccccc3)C(C)=C1C2(C)C [Example 4, (1S,2S,4S,9S,10S,15S,7R,12R)-4,12-diacetyloxy-9-{2-(({2,2-bis((nitrooxy)methyl)-3-(nitrooxy)propyl}oxycarbonyl)methoxy)acetyloxy}-1-hydroxy-10,14,17,17-tetramethyl-6-oxa-11-oxo-2-phenylcarbonyloxytetracyclo (11.3.1.0<3,10>0.0<4,7>)heptadec-13-en-15-yl(3S,2R)-2-{2-(({2,2-bis ((nitrooxy)methyl)-3-(nitrooxy)propyl}oxycarbonyl)methoxy)acetyloxy}-3-phenyl-3-(phenylcarbonylamino)propanoate]		1	superior to paclitaxel	
CC(=O)O[C@H]1C(=O)[C@@]2(C)[C@H]([C@H](OC(=O)c3ccccc3)[C@]3(O)C[C@H](OC(=O)[C@H](O)[C@@H](NC(=O)c4ccccc4)c4ccccc4)C(C)=C1C3(C)C)[C@]1(OC(C)=O)CO[C@@H]1C[C@@H]2O [Paclitaxel, reference compound]	did not prevent platelet aggregation	0.01		
N[C@@H](CCC(=O)N[C@@H](CSN=O)C(=O)NCC(=O)O)C(=O)O [S-Nitrosoglutathione, reference compound]				final concentration that totally inhibited platelet aggregation (rabbit platelets): 1 µM
